Legend:
[1] = tested on: spontaneously beating guinea-pig atria; experiment: decrease of heart rate of spontaneously beating guinea-pig atria in vitro; settings: Cavia porcellus, read-out: EC25 (concentration decreasing the rate of the spontaneously beating atria by 25%)
Method: For example, in guinea-pig atria in vitro [method of R. P. Hof and G. Scholtysik, J. of Cardiovascular Pharmacology 5, 176-183 (1983)] a decrease of the heart rate of spontaneously beating atria is observed at a bath concentration of from about 1 μM to about 100 μM. The concentration decreasing the rate of the spontaneously beating atria by 25% (EC25 values) for some compounds of the present invention and the standard Alinidin are given in the following Table: […]

[2] = tested on: mice; experiment: inhibition of locomotion in mice; type: in vivo, mouse (male, OF-1); settings: Mus musculus, po, 1 hour after administration, minimum dose at which significant inhibition was observed, read-out: Locomotor inhibition EDmin
Method: In particular, the compounds of formulae I and VII are useful as neuroleptic agents in the treatment of e.g. psychotic disorders such as schizophrenia, as indicated in standard tests, e.g. by an inhibition of locomotion in mice. In this test groups of 3 male mice (18-24 g, OF-1, Sandoz Basle) received 3.2, 10, 32, 100 and […]. of the test drug. 1 hour after drug administration the mice were observed individually and their locomotion compared with that of control. The locomotion of the animals was observed and the EDmin (the minimum dose at which significant inhibition was observed) determined.

[3] = target: T1, ^3 H-Spiperone binding sites (Bos taurus, UniProt P20288); experiment: ^3 H-Spiperone binding (calf brain striatal tissue); settings: for IC50: calf brain striatal membranes, 0.1 nM ^3 H-Spiperone, 5×10^-7 M Cinanserin, 40 minutes at room temperature, read-out: Receptor binding IC50 ^3 H-Spiperone; for effect in the ^3 H-Spiperone binding test compared with Clozapine: in words, relative to Clozapine
T1 construct: fresh calf brain striatal tissue was homogenized; from tissue; host or cells: calf brain striatum, membranes
T1 sequence (P20288 whole entry): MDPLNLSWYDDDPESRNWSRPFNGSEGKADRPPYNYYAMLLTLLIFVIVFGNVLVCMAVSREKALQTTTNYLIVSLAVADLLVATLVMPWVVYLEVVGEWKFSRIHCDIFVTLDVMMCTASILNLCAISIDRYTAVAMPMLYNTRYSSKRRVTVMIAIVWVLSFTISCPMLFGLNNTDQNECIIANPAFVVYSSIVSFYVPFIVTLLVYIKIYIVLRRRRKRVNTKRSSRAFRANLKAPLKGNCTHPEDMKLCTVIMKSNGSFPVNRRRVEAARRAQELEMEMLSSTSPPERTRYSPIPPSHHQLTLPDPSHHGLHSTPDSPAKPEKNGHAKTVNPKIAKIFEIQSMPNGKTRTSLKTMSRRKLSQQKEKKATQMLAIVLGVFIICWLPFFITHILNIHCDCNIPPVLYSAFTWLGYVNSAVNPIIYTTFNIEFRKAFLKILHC
Method: The compounds of formulae I and VII bind further on ^3 H-Spiperone binding sites in the brain [modified method of J. Leysen et al., Biochem. Pharmac. […] The test was performed as follows: fresh calf brain striatal tissue was homogenized in the 25 fold volume of Tris buffer (pH 7.4, 50 mM, 120 mM sodium chloride) and centrifuged. The pellets were suspended in the 22 fold volume of Tris buffer, incubated for 15 minutes at 37° C. and centrifuged. The pellets were suspended in the 300 fold volume of Tris buffer. […] After incubation for 40 minutes at room temperature, the assay mixtures were raidly filtered through Whatman GF/B filter, the filters washed twice with 5 ml of ice cold Tris buffer and scintillation-counted.

[4] = target: α1-receptors; experiment: ^3 H-Prazosin binding assay for α1-receptors (calf brain cortex); settings: calf brain cortex membranes, 0.3 nM ^3 H-Prazosin, pH 7.7, 40 min room temperature; read-out: IC50, inhibition of specific ^3 H-Prazosin binding
Method: The compounds of formulae I and VII are furthermore useful as anti-hypertensive agents, as indicated in standard tests, for example in the ^3 H-Prazosin binding assay for α1 -receptors [modified method of Greengrass P., et al., Eur. J. Pharmac. 55, 323-326 (1979)]. The test was performed as follows:
Fresh calf brain cortex tissue is homogenized in a 20 fold volume of Tris-HCl buffer (50 mM, pH 7.7), using a Polytron PT 20, and centrifuged at 30'000 xg for 25 min. The pellets are resuspended in a 13 fold volume of the same buffer, incubated for 15 min at 37° C., and recentrifuged at 50'000 xg for 11 min. The pellets of this centrifugation are frozen at -20° C. and resuspended in a 60 fold volume of the same buffer as above before use for the binding experiment. The composition of the assay mixtures (total volume=2 ml) is as follows: 50 mM Tris-HCl pH 7.7, membranes corresponding to 30 mg of original tissue weight, and 0.3 nM ^3 H-Prazosin. The assays for the definition of nonspecific binding additionally contain phentolamine at a concentration of 10 μM. To assess the potency of drugs in inhibiting specific ^3 H-Prazosin binding (difference between total and nonspecific binding), the test compounds are added to give 5 to 9 different concentrations between 1 nM and 10 μM, each in duplicate. After incubation for 40 min at room temperature, the assay mixtures are rapidly filtered through Whatman GF/B filters and washed twice with 5 ml of ice cold Tris buffer. The radioactivity of the filters is estimated by scintillation counting.

[5] = tested on: female normotonic rats; experiment: blood pressure / heart rate in anaesthetized normotonic rats; type: in vivo, rat (female, Sprague-Dawley); settings: Rattus norvegicus, iv; urethane-anaesthetized rats, cumulative i.v. doses 3 to 1443 μg/kg, interpolated; read-out: ED75 (dose required to reduce the blood pressure on the heart rate to 75% of pretreatment values)
Method: In another test female normotonic rats (200-350 g, Sprague-Dawley, Suddeutsche Tierfarm, Tuttlingen, FRG) were anaesthetized with urethane (1.5-1.75 g/kg i.p. in 2 portions) and a tracheal cannula was inserted. Blood pressure and heart rate were recorded from the carotid artery by conventional methods. Test drug were administered by the jugular or the femoral vein. Body temperature was maintained at 37° C. by means of a temperature regulator (Alfos MK-4) triggered by a thermistor on the animal. After adaptation, increasing doses of the test drug were injected i.v. to give the following cumulative doses: 3, 13, 43, 143, […] and 1443 μg/kg. ED 75% is the dose required to reduce the blood pressure on the heart rate to 75% of pretreatment values. It was obtained through interpolation. The ED75 of the Example 4 compound is 6 μg, of Example 5s compound 3 μg, of Example 8 g 4 μg and of Guanfacine 57 μg.

**Q.** `C=CCN(C1=NCCN1)c1c(Cl)cccc1Cl` [Alinidin, reference compound] was tested. Which EC25 [1] did it give?
**A.** 6500 nM

**Q.** For `CN1CCN(C2=Nc3cc(Cl)ccc3Nc3ccccc32)CC1` [Clozapine, reference compound], which minimal effective dose [2] is on record?
**A.** 3.2 mg/kg

**Q.** Which results are given for `O=C(CCCN1CCN(c2ccc3[nH]cnc3n2)CC1)c1ccc(F)cc1` [Example 1, 1-(4-Fluorophenyl)-4-[4-(1H-imidazo[4,5-b]pyridin-5-yl)-1-piperazinyl]-1-butanone]?
**A.** EC25 [1]: 7800 nM; IC50 [3]: 306 nM; effect in the ^3 H-Spiperone binding test compared with Clozapine [3]: stronger effects; minimal effective dose [2]: 1 mg/kg

**Q.** How did the IC50 [4] turn out when `Cc1nc2ccc(N3CCN(CCCC(=O)c4ccc(F)cc4)CC3)nc2n1C` [Example 3d] was run?
**A.** 2.2 nM

**Q.** `CCc1nc2ccc(N3CCN(CCCC(=O)c4ccc(F)cc4)CC3)nc2[nH]1` [Example 3i] was tested. Which IC50 [3] did it give?
**A.** 246 nM

**Q.** What about the “effect in the ^3 H-Spiperone binding test compared with Clozapine” value [3] of the same compound?
**A.** stronger effects

**Q.** What about the minimal effective dose [2] of the same compound?
**A.** 3.2 mg/kg

**Q.** How did the IC50 [3] turn out when `O=C(CCCN1CCN(c2cc3[nH]cnc3cn2)CC1)c1ccc(F)cc1` [Example 3r] was run?
**A.** 441 nM

**Q.** And the minimal effective dose [2]?
**A.** ≤ 3.2 mg/kg

**Q.** Which IC50 [4] does the source give for `CC(=O)Nc1cnc(N2CCN(CCCC(=O)c3ccc(F)cc3)CC2)cc1NC(C)=O` [Example 4, 4-[4-(4,5-Diacetylamino-2-pyridinyl)-1-piperazinyl]-1-(4-fluorophenyl)-1-butanone] here?
**A.** < 1 nM

**Q.** And the ED75 [5]?
**A.** 0.006 mg/kg

**Q.** For `CC(=O)Nc1ccc(N2CCN(CCCC(=O)c3ccc(F)cc3)CC2)nc1NC(C)=O` [Example 5c], which IC50 [3] is on record?
**A.** 4600 nM

**Q.** What about the minimal effective dose [2] of the same compound?
**A.** 1 mg/kg

**Q.** How did the ED75 [5] turn out when `CC(=O)Nc1cnc(N2CCN(CCCOc3ccc(F)cc3)CC2)cc1NC(C)=O` [Example 5s] was run?
**A.** 0.003 mg/kg

**Q.** What does the source list for `Cc1nc2ccc(N3CCN(CCCC(=O)c4ccc(F)cc4)CC3)nc2nc1C` [Example 7, 4-[4-(2,3-Dimethyl-pyrido[2,3-b]pyrazin-6-yl)-1-piperazinyl]-1-(4-fluorophenyl)-1-butanone]?
**A.** IC50 [3]: 205 nM; minimal effective dose [2]: 10 mg/kg

**Q.** For `Cc1nc2cnc(N3CCN(CCCC(=O)c4ccc(F)cc4)CC3)cc2nc1C` [Example 8c], which IC50 [3] is on record?
**A.** 121 nM

**Q.** What about the minimal effective dose [2] of the same compound?
**A.** 10 mg/kg

**Q.** For `O=C(CCCN1CCN(c2cc3nccnc3cn2)CC1)c1ccc(F)cc1` [Example 8d], which EC25 [1] is on record?
**A.** 4000 nM

**Q.** Which EC25 [1] does the source give for `Fc1ccc(OCCCN2CCN(c3cc4nccnc4cn3)CC2)cc1` [Example 8g] here?
**A.** 2150 nM

**Q.** What about the ED75 [5] of the same compound?
**A.** 0.004 mg/kg

**Q.** With `N=C(N)NC(=O)Cc1c(Cl)cccc1Cl` [Guanfacine, reference compound] as the compound, how does the IC50 [4] read?
**A.** 3700 nM

**Q.** And the ED75 [5]?
**A.** 0.057 mg/kg

From patent publication US4565816A, “Piperazine derivatives and pharmaceutical composition containing them” (Sandoz Ltd., priority 1982, dated 1986)
